Experimental data published in ChEMBL document CHEMBL1124561, “Synthesis of acyclonucleoside hydroxamic acids as inhibitors of ribonucleotide reductase” (J Med Chem, 1989).
Where “and” joins values, the source holds several entries; their conditions need not be identical. Identical values can stand only once.

What was measured:
[1] = Inhibition against cytidine diphosphate reductase activity in calf thymus; format: tissue-based, Bos taurus
[2] = tested on: HeLa; assay: Percent inhibition of growth of human cervical carcinoma (HeLa) cells in culture at 10 micro g/mL of the compound; format: functional
[3] = tested on: HeLa; assay: Percent inhibition of growth of human cervical carcinoma (HeLa) cells in culture at 5 micro g/mL of the compound; format: functional
[4] = tested on: HeLa; assay: Percent inhibition of growth of human cervical carcinoma (HeLa) cells in culture at 50 micro g/mL of the compound; format: functional
[5] = tested on: HeLa; assay: Percent inhibition of growth of human cervical carcinoma (HeLa) cells in culture at 25 micro g/mL of the compound; format: functional
[6] = tested on: HeLa; assay: Percent inhibition of growth of human cervical carcinoma (HeLa) cells in culture at 2.5 micro g/mL of the compound; format: functional
[7] = tested on: HeLa; assay: Percent inhibition of growth of human cervical carcinoma (HeLa) cells in culture at 200 micro g/mL of the compound; format: functional
[8] = tested on: HeLa; assay: Percent inhibition of growth of human cervical carcinoma (HeLa) cells in culture at 100 micro g/mL of the compound; format: functional
[9] = tested on: HeLa; assay: Percent inhibition of growth of human cervical carcinoma (HeLa) cells in culture at 0.1 micro g/mL of the compound; format: functional
[10] = tested on: HeLa; assay: Percent inhibition of growth of human cervical carcinoma (HeLa) cells in culture at 1 micro g/mL of the compound; format: functional

Work on `O=C(NO)C(OCCO)n1cc(F)c(=O)[nH]c1=O` (centres undefined) yielded an IC50 [1] of 1400 µM, an Inhibition [2] of 66% and an Inhibition [3] of 40%. It also gave an Inhibition [4] of 80%, an Inhibition [5] of 75% and an Inhibition [6] of 16.5%.

Work on `O=C(NO)C(OCCO)n1ccc(=O)[nH]c1=O` (centres undefined) yielded an IC50 [1] of 2200 µM, an Inhibition [4] of 13% and an Inhibition [5] of 19%. The Inhibition [7] was 97% and the Inhibition [8] was 47%.

Compound `Nc1ccn(C(OCCO)C(=O)NO)c(=O)n1` (centres undefined) has an IC50 [1] of 4900 µM and an Inhibition [7] of 0%.

For `O=c1[nH]cc(F)c(=O)[nH]1` [FLUOROURACIL], the Inhibition [2] was 63.5% and 70%, the Inhibition [3] was 34.3% and the Inhibition [9] was 19%. It also gave an Inhibition [4] of 90%, an Inhibition [5] of 77% and an Inhibition [10] of 55%.

In the case of `NC(=O)NO` [HYDROXYUREA], the IC50 [1] is reported as 500 µM, the Inhibition [2] is reported as 63.5% and the Inhibition [3] is reported as 34.3%. For the same compound, the Inhibition [4] was 90% and the Inhibition [5] was 77%.
